Measurements reported in ChEMBL document CHEMBL1122550.

Assay: The ability to displace [3H]colchicine binding to rat brain tubulin protein
Set-up: concentration or dose not given beside the values
Details: concentration not given here

Structure (SMILES)	inhibition
COc1cc2c(c(OC)c1OC)-c1ccc(OC)c(=O)cc1[C@@H](NC(=O)[C@@H]1CC(C)(C)N([O])C1(C)C)CC2	0%
COc1c(COC(=O)C2CC(C)(C)N([O])C2(C)C)c2c(c(OC)c1OC)-c1ccc(OC)c(=O)cc1[C@@H](NC(C)=O)CC2 (stereo partly specified)	24%
COc1cc2c(c(OC)c1OC)-c1ccc(OC)c(=O)cc1[C@@H](NC(=O)[C@H]1CC(C)(C)N([O])C1(C)C)CC2	0%

Continued, values first:

inhibition	Structure (SMILES)
65%	COc1cc2c(c(OC)c1OC)-c1ccc(OC)c(=O)cc1[C@@H](NC(=O)COC(=O)[C@H]1CC(C)(C)N([O])C1(C)C)CC2
72%	COc1cc2c(c(OC)c1OC)-c1ccc(OC)c(=O)cc1[C@@H](NC(=O)COC(=O)[C@@H]1CC(C)(C)N([O])C1(C)C)CC2
60%	COc1cc2c(c(OC)c1OC)-c1ccc(OC)c(=O)cc1[C@@H](NC(=O)COC(=O)C1CC(C)(C)N([O])C1(C)C)CC2 (stereo partly specified)
